Results published in paper PMC9681820, “A PDE10A inhibitor CPL500036 is a novel agent modulating striatal function devoid of most neuroleptic side-effects” (Frontiers in Pharmacology, 2022).
Like-named read-outs stand apart in the source and are kept apart here.

Experiments:
human = conditions: ref Janowska et al., 2019, manuscript in preparation; cited from earlier work
[1] = system: unilateral rat model of Parkinson’s disease; design: method as in Lenda et al., 2021; conditions: Parkinson’s disease animal model; ref Lenda et al., 2021; cited from earlier work
[2] = system: Salmonella typhimurium TA1537; assay: Ames test; conditions: CPL500036 5000µg/plate, n=3
[3] = Hepatocyte stability assay; format: in vitro ADME; conditions: data not shown, n = 6
[4] = system: N-Methyl-D-aspartic acid receptor; assay: SafetyScreen44 radioligand binding; design: species or system rat; conditions: 1 μM
Protocol: (§1) The SafetyScreen44® assay was carried out by Eurofins (Poitiers, France) according to the service-provider’s protocol. CPL500036 (1 µM) was tested against a panel of […] potential off-targets proteins, including G protein-coupled receptors (GPCRs), transporters, ion channels, nuclear receptors kinases and other non-kinase enzymes, by use of a set of the binding assays.
(§2) Binding of CPL500036 was calculated as the percent binding inhibition of a radioactively labeled ligand specific for each target. Enzyme inhibition of CPL500036 was calculated as the percent inhibition of the activity of the control enzyme. “No interaction” was denoted if inhibition ≤ 25% of specific binding of the control. Determination of muscarinic acetylcholine receptor (M2) activity induced by CPL500036 (antagonism and agonism) was undertaken in human recombinant CHO cells by measurement of the intracellular cAMP level according to the service-provider’s protocol. IC50 (concentration causing a half-maximal inhibition of specific binding of the control) or EC50 (concentration causing a half-maximal response of specific binding of the control) and the Hill coefficient were determined by non-linear regression analysis of the competition curves generated with mean replicate values using Hill-equation curve fitting with software developed at Cerep (Celle-Lévescault, France).

[5] = system: calcium channel, voltage-dependent, L type; assay: SafetyScreen44 radioligand binding; design: species or system rat; conditions: 1 μM
Protocol: as §1, §2

[6] = system: voltage-gated sodium channels site 2; assay: SafetyScreen44 radioligand binding; design: species or system rat; conditions: 1 μM
Protocol: as §1, §2

[7] = system: benzodiazepine receptor (GABAA); assay: SafetyScreen44 radioligand binding; design: species or system rat; conditions: 1 μM; agonist radioligand
Protocol: as §1, §2

MTT cytotoxicity assay = format: cell-based; conditions: human, n = 3
Protocol: The cytotoxicity of CPL500036 was evaluated in human non-small-cell lung cancer (NCI-H1299, ATCC® CRL-5803™), human hepatocellular carcinoma (Hep G2 [HEPG2], ATCC® HB-8065™) and human neuroblastoma (SH-SY5Y, ECACC, 94030304) cells using the 3-(4,5-dimethylthiazol-2-yl)-2,5-diphenyltetrazolium bromide (MTT) assay (Invitrogen, Carlsbad, CA, United States). Cells were seeded in an appropriate complete growth medium (following manufacturer recommendations) onto 96-well plates. After overnight incubation (37°C, 5% CO2) the medium was replaced with fresh medium (100 μl/well) containing the desired concentration of CPL500036 (8 nM–60 μM, diluent factor = 3), positive control or vehicle control (1% dimethyl sulfoxide (DMSO)) followed by incubation for 72 h (37°C, 5% CO2). Then, 25 μl of filtered (filter size = 0.22 μm) MTT solution (12 mM) in phosphate-buffered saline (PBS) was added to each well, including blank control (medium without cells) followed by incubation for 2 h (37°C, 5% CO2). After that, formazan crystals were dissolved in DMSO (100 μl/well). The absorbance was measured at 540 nm (A540, substrate wavelength) and 690 nm (A690, reference wavelength) using an automatic microplate reader (Multiskan™ GO; ThermoFisher Scientific). The metabolic activity of cells in the presence of vehicle control (1% DMSO) was considered to be 100%, and we calculated the difference between A540 and A690. IC50 was calculated using Prism 7.05.

hERG = hERG (Homo sapiens, UniProt Q12809); assay: hERG tail current, manual patch-clamp in hERG-HEK-293 transfected cells; format: cell-based
Chain of hERG (Q12809 whole entry): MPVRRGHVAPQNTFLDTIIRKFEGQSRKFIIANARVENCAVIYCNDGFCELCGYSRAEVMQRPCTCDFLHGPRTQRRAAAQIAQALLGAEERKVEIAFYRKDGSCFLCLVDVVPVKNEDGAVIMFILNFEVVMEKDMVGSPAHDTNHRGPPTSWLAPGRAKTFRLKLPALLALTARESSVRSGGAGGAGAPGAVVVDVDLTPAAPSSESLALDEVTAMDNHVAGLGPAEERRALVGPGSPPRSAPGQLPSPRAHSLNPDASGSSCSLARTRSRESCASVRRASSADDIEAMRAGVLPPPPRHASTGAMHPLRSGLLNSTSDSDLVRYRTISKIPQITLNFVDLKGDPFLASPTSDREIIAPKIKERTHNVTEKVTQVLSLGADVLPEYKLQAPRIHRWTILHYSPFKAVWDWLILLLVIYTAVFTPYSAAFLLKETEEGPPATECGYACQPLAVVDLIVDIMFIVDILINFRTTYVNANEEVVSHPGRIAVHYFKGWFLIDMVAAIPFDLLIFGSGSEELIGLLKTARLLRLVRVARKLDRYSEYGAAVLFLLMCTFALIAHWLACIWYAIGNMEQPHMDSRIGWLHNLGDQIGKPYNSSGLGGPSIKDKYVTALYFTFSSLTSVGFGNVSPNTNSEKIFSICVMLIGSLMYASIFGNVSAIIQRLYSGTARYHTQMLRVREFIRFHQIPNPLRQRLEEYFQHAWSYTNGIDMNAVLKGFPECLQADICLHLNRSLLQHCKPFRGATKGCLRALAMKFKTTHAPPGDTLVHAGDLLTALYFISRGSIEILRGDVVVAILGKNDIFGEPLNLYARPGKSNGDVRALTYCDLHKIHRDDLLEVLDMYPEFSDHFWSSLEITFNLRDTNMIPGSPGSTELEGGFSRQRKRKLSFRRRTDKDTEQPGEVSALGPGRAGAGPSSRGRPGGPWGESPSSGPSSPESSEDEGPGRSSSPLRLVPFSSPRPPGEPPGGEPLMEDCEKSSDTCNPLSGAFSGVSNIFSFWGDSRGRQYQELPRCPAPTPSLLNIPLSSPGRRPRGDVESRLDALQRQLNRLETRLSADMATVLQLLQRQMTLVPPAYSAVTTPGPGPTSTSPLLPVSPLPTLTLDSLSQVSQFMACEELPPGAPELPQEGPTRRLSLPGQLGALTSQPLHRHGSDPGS
Protocol: The dose-dependent effect of CPL500036 (10^–7 M–10^–5 M) on hERG current was conducted at Centre De Recherches Biologiques (CERB; Baugy, France) using the whole hERG-HEK-293 transfected cell system and manual patch-clamp method. […] Cells were clamped to −80 mV, depolarized to 0 mV for 5 s (to allow activation of hERG current) and repolarized to −50 mV for 5 s (to allow hERG tail current to deactivate). This experimental procedure was repeated at a frequency of 0.06 Hz. Currents were filtered at 1 kHz and acquired at a frequency of 2 kHz. The amplitude of hERG tail current was measured during the repolarizing pulse from 0 mV to −50 mV. […] Currents were measured before and after exposure to CPL500036.

pKa (Figure 1) = format: physicochemical; conditions: printed in the picture of Figure 1, no method given
Sprague–Dawley rats = assay: Catalepsy bar test; format: in vivo; conditions: p.o.
Protocol: Sprague–Dawley rats (∼300 g; Charles River Laboratories, Wilmington, MA, United States) (n = 8–12/group) were treated (p.o.) with vehicle or CPL500036 (0.15 mg/kg, 0.3 mg/kg, 0.6 mg/kg or 2 mg/kg). As a positive control causing catalepsy, haloperidol (1 mg/kg, i.p.) was employed. One hour following drug administration, catalepsy (prolonged maintenance of an externally imposed abnormal posture) was assessed using the bar test as described by Ionova and Severtsev ([Ionov and Severtsev, 2012]). Testing was accomplished by placing each rat in an upright position with his forepaws resting on a horizontal bar (0.9 cm in diameter) suspended in a wooden frame 7.5 cm above the cage floor. The rat was allowed to keep his forepaws on the bar for a measurement lasting for 30 s. The latency to remove both forepaws from the bar was measured with a hand-held stopwatch. The test was repeated for each rat every 30 min up to 240 min. Rats were returned to their home cages between tests. Each rat was tested twice, at an interval of 1 week.

[8] = system: Salmonella typhimurium TA1535; conditions: CPL500036 5000µg/plate, n=3
[9] = With metabolic activation (+S9 mix), 2AA 2µg/plate
[10] = Without metabolic activation (-S9 mix), 9AA 50µg/plate
[11] = Without metabolic activation (-S9 mix), SAZ 2µg/plate

Structure (SMILES): Cc1ncc(C)n2nc(-c3ccn4cc(-c5ccccc5)nc4n3)nc12 [CPL500036, 7-[5,8-Dimethyl-(1,2,4)triazolo (1,5-a)pyrazin-2-yl]-2-phenylimidazo (1,2-a) pyrimidine]
- bioavailability in human (human): bioavailable in human
- safety and tolerability in human (human): generally safe and well tolerated with no serious adverse effects
- dose showing therapeutic activity [1]: 0.1 mg/kg
- Mutation rate [2, 9]: 0.69
- Revertants Mean±SD [2, 9]: 6.0±5.20
- Mutation rate [2, 10]: 0.71
- Revertants Mean±SD [2, 10]: 4.0±4.36
- active metabolites [3]: no active metabolites were identified
- % Inh (% inhibition of control specific binding) [4]: 4.4%
- % Inh (% inhibition of control specific binding) [5]: −7.2%
- % Inh (% inhibition of control specific binding) [6]: −1.3%
- % Inh (% inhibition of control specific binding) [7]: −27.7%
- IC50 at 72 h (MTT cytotoxicity assay; HepG2 cells, HepG2, 72 h): > 60 µM
- IC50 at 72 h (MTT cytotoxicity assay; NCI-H1299 cells, H1299, 72 h): > 60 µM
- IC50 at 72 h (MTT cytotoxicity assay; SH-SY5Y cells): > 60 µM
- hERG IC25 relative to the IC50 for PDE10A (hERG): > 3,000 times
- IC25, inhibition of hERG tail current (hERG; hERG-HEK-293 transfected cells, manual patch-clamp, mean ± SD, n = 3): 3.2 ± 1.6 µM
- pKa (pKa (Figure 1)): 2.41
- catalepsy, bar test (Sprague–Dawley rats; 0.15 mg/kg, 60 min–240 min after administration): did not induce catalepsy
- catalepsy, bar test (Sprague–Dawley rats; 0.3 mg/kg, appeared only at 210 min and 240 min): low cataleptogenic effect
- catalepsy, bar test (Sprague–Dawley rats; 0.6 mg/kg, 60 min–240 min after administration): apparent 120 min–240 min following administration, but did not achieve the level elicited by haloperidol
- catalepsy, bar test (Sprague–Dawley rats; 2 mg/kg, compared with haloperidol 1 mg/kg, i.p.): strong cataleptogenic effect comparable with that of haloperidol
- minimum effective dose (MED) needed to elicit catalepsy (Sprague–Dawley rats; from AUC data of the duration of catalepsy): 0.6 mg/kg
- Mutation rate [8, 9]: 0.6
- Revertants Mean±SD [8, 9]: 8.3±5.13
- Mutation rate [8, 11]: 1.13
- Revertants Mean±SD [8, 11]: 12.0±5.57
